Common to all, as to experiment: NCI tumour cell line growth inhibition, 48 h
Test [1] relates to M14 melanoma.
For test [2], the system named is RXF 393 renal.
Test [3] relates to BT-549 breast.
For test [4], the system named is HOP-92 NSCLC.
The test system of test [5] is MDA-MB-435.
The test system of test [6] is LOX IMVI melanoma.
The test system of test [7] is UACC-257 melanoma.
The subject of test [8] is HCT-15 colon.
For test [9], the system named is NCI-H460 lung.
The test system of test [10] is SK-MEL-5 melanoma.

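Step 1: Grow cells in 96-well plates. Step 2: Expose to compound for 48 hours at 5 concentrations. Step 3: Interpolate endpoints linearly; if unreached, use highest concentration. GI50 marks 50% less growth. The concentration for full growth arrest is given as TGI.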

As for `CN(CCCCCCCCNc1ccnc2ccccc12)Cc1ccc(-c2ccc(-c3ccc(C#N)cc3)s2)cc1`, the GI50 in test [1] was 443 nM; in test [2] it was 1130 nM; in test [3], 1440 nM; in [4], 337 nM; in test [5], 1.19 µM; in test [6] it was 164 nM. Besides, the GI50 was 0.482 µM in test [7], 266 nM in test [8], 0.367 µM in test [9] and 0.89 µM in test [10]. Further, the TGI in test [1] amounted to 1.56 µM; in test [2], 2.54 µM; in [3], 3.2 µM; in [4] it was 2.53 µM; in test [5] it was 2.5 µM; in test [6], 0.31 µM. Further, the TGI in test [7] worked out at 1.6 µM; in test [8], 1.37 µM; in test [9], 1.25 µM; in test [10], 2.17 µM.
With `O=c1oc2ccc(I)cc2c(=O)n1-c1ccc(I)cc1F`, the GI50 in [1] was 545 nM; in test [2], 861 nM; in test [3] it was 403 nM; in test [4], 169 nM; in [5], 0.586 µM; in [6] it was 532 nM. In addition, the GI50 in test [7] is 0.522 µM; in [8], 704 nM; in test [9] it was 0.429 µM; in [10], 0.258 µM. Moreover, the TGI in test [1] stood at 5.87 µM; in test [2], 4.16 µM; in test [3], 2.02 µM; in [4] it was 0.544 µM; in test [5] it was 5.6 µM; in test [6], 4.66 µM. For the same molecule, the TGI in [7] was found to be 5.6 µM; in test [8] it was 10.5 µM; in [9] it was 10.3 µM; in test [10] it was 0.747 µM.
With `CCc1nc(N)nc(N)c1-c1ccc(N(C)Cc2ccccc2)c([N+](=O)[O-])c1`, the TGI turned out to be 11.3 µM in test [1]; 22.9 µM in test [2]; 18.4 µM in test [3]; 18.7 µM in test [4]; 17.9 µM in test [5]; 22.2 µM in test [6]. For the same molecule, the TGI was 14.2 µM in test [7], 9.86 µM in [8], 8.72 µM in [9] and 4.32 µM in [10].
Take `CC[C@H](C)C(=O)O[C@H]1CCC=C2C=C[C@H](C)[C@H](CC[C@@H]3C[C@@H](O)CC(=O)O3)[C@H]21`: the GI50 was 8970 nM in test [1]; 3320 nM in test [2]; 14400 nM in [3]; 135 nM in test [4]; 7.51 µM in test [5]; 1070 nM in [6]. In addition, the GI50 in [7] was 73.3 µM; in [8], 2520 nM; in [9] it was 8.59 µM; in test [10], 3.39 µM. Further, the TGI is greater than 100 µM in test [1]; 16.6 µM in test [2]; greater than 78.5 µM in test [3]; 0.706 µM in test [4]; greater than 100 µM in test [5]; 6.53 µM in test [6]. Also, the TGI is greater than 100 µM in [7], greater than 100 µM in [8], greater than 100 µM in test [9] and 13.6 µM in test [10].
Regarding `O=C(CS(=O)c1nc2ccccc2nc1-c1ccccc1)Nc1ccc(Cl)cc1` (stereo not drawn), the GI50 in test [1] was 28400 nM; in test [2], 30400 nM; in [3], 1330 nM; in [4] it was 12300 nM; in test [5], 18.1 µM; in test [6], 17500 nM. For the same molecule, the GI50 was 24.7 µM in [7], 21200 nM in [8], 18.6 µM in test [9] and 15.2 µM in test [10]. In addition, the TGI in [1] is greater than 100 µM; in [2] it was 84.3 µM; in test [3] it was 53.1 µM; in test [4], 49.2 µM; in test [5], 41.4 µM; in test [6], 33.6 µM. Also, the TGI in test [7] was determined as 77.3 µM; in [8], 59.4 µM; in [9], 47.7 µM; in [10], 30.8 µM.
As for `Cl.[O-]c1cccc2cccnc12.[O-]c1cccc2cccnc12.[O-]c1cccc2cccnc12.[O-]c1cccc2cccnc12.[Ti+4]`, the GI50 is 994 nM in [1]; 319 nM in [2]; 15700 nM in test [4]; 11.6 µM in test [5]; 1690 nM in [6]; 0.712 µM in test [7]. Moreover, the GI50 was 354 nM in test [8] and 1.28 µM in test [9]. The TGI is 17.8 µM in [1]; 2.13 µM in test [2]; greater than 100 µM in test [3]; greater than 71.7 µM in [4]; greater than 100 µM in [5]; greater than 88.9 µM in test [6]. Further, the TGI in test [7] was greater than 35.1 µM; in test [8], 7.06 µM; in [9], 10.2 µM; in test [10], 2.46 µM.
On to `Cc1cc2oc(=O)cc(OC/C=C3/CCC(=O)O3)c2cc1C`, for which the GI50 was 2180 nM in test [1]; 1830 nM in test [2]; 1930 nM in [3]; 1650 nM in test [4]; 4.64 µM in test [5]; 1820 nM in test [6]. In addition, the GI50 was 12.3 µM in test [7], 2690 nM in [8], 6.6 µM in test [9] and 12.4 µM in [10]. Besides, the TGI in test [1] came to 4.87 µM; in [2], 9.81 µM; in test [3], 6.73 µM; in [4], 10.6 µM; in [5] it was 18.5 µM; in test [6], 4.59 µM. The TGI in [7] was 26.4 µM; in test [8], 12.2 µM; in [9], 32.5 µM; in test [10] it was 26.3 µM.
Take `COc1ccccc1/C=C1\CCC(CN2CCOCC2)C1=O` (stereo not drawn): the TGI in test [1] turned out to be 18.8 µM; in test [2], 30.6 µM; in test [3] it was 29.8 µM; in test [4] it was 40.2 µM; in test [5], 20.4 µM; in test [6] it was 15.7 µM. The TGI was 23.9 µM in test [7], 12.3 µM in [8], 36 µM in [9] and 28.7 µM in test [10].

The values above are taken from PubChem BioAssay (NCI).
